In article doi:10.1101/2025.07.02.662867v1 (bioRxiv, 2025):

Key:
[1] = typical dose of 0.5 to 1 mg; cited from earlier work
[2] = 24-hour IV pharmacokinetic study in T2D rat model; parameters: species or system STZ/NA diabetic); details: male, Sprague Dawley, in vivo
[3] = test system: type 2-like diabetic male rats; assay: Blood glucose and body weight over 6 weeks in diabetic rats; type: in vivo, rat (male Sprague Dawley, STZ/NA diabetic); details: hydrogel vs daily bolus

CC[C@H](C)[C@H](NC(=O)[C@H](Cc1ccccc1)NC(=O)[C@H](CCC(=O)O)NC(=O)[C@H](CCCCNC(=O)COCCOCCNC(=O)COCCOCCNC(=O)CC[C@H](NC(=O)CCCCCCCCCCCCCCCCC(=O)O)C(=O)O)NC(=O)[C@H](C)NC(=O)[C@H](C)NC(=O)[C@H](CCC(N)=O)NC(=O)CNC(=O)[C@H](CCC(=O)O)NC(=O)[C@H](CC(C)C)NC(=O)[C@H](Cc1ccc(O)cc1)NC(=O)[C@H](CO)NC(=O)[C@H](CO)NC(=O)[C@@H](NC(=O)[C@H](CC(=O)O)NC(=O)[C@H](CO)NC(=O)[C@@H](NC(=O)[C@H](Cc1ccccc1)NC(=O)[C@@H](NC(=O)CNC(=O)[C@H](CCC(=O)O)NC(=O)C(C)(C)NC(=O)[C@@H](N)Cc1cnc[nH]1)[C@@H](C)O)[C@@H](C)O)C(C)C)C(=O)N[C@@H](C)C(=O)N[C@@H](Cc1c[nH]c2ccccc12)C(=O)N[C@@H](CC(C)C)C(=O)N[C@H](C(=O)N[C@@H](CCCNC(=N)N)C(=O)NCC(=O)N[C@@H](CCCNC(=N)N)C(=O)NCC(=O)O)C(C)C [Sema, semaglutide]
half-life in humans [1]: 170 h

CC[C@H](C)[C@H](NC(=O)[C@H](CC(C)C)NC(=O)[C@H](Cc1c[nH]c2ccccc12)NC(=O)[C@H](CCC(N)=O)NC(=O)[C@@H](NC(=O)[C@H](Cc1ccccc1)NC(=O)[C@H](C)NC(=O)[C@H](CCCCNC(=O)COCCOCCNC(=O)COCCOCCNC(=O)CC[C@H](NC(=O)CCCCCCCCCCCCCCCCCCC(=O)O)C(=O)O)NC(=O)[C@H](CCC(N)=O)NC(=O)[C@H](C)NC(=O)[C@@H](NC(=O)[C@H](CCCCN)NC(=O)[C@H](CC(=O)O)NC(=O)[C@H](CC(C)C)NC(=O)C(C)(C)NC(=O)[C@@H](NC(=O)[C@H](CO)NC(=O)[C@H](Cc1ccc(O)cc1)NC(=O)[C@H](CC(=O)O)NC(=O)[C@H](CO)NC(=O)[C@@H](NC(=O)[C@H](Cc1ccccc1)NC(=O)[C@@H](NC(=O)CNC(=O)[C@H](CCC(=O)O)NC(=O)C(C)(C)NC(=O)[C@@H](N)Cc1ccc(O)cc1)[C@@H](C)O)[C@@H](C)O)[C@@H](C)CC)[C@@H](C)CC)C(C)C)C(=O)N[C@@H](C)C(=O)NCC(=O)NCC(=O)N1CCC[C@H]1C(=O)N[C@@H](CO)C(=O)N[C@@H](CO)C(=O)NCC(=O)N[C@@H](C)C(=O)N1CCC[C@H]1C(=O)N1CCC[C@H]1C(=O)N1CCC[C@H]1C(=O)N[C@@H](CO)C(N)=O [TZP, tirzepatide]
half-life [2]: 3.87 ± 0.63 h | body weight outcome [3]: noticeable weight loss in some animals
